Columns and labels:
morningglory [1] = test: Test A preemergence; format: in vivo, Ipomoea spp.; details: for Morningglory plant response rating (0 to 100 scale): 125 g ai/ha
In short: (§1)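 Scoring: eye-based comparison with untreated controls, 0 for no effect through 100 for complete control, at about day 10. Treatments: directed soil spray preemergence; foliar spray postemergence on 2–10 cm plants at the one- to two-leaf stage. Medium: loam soil with sand.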

corn [2] = test: Test A postemergence; format: in vivo, Zea mays; details: for Corn plant response rating: 125 g ai/ha
In short: as §1

rice = test: Test B flooded paddy test; format: in vivo, Oryza sativa; details: Flood, 250 g ai/ha; 0 to 100 scale where 0 is no effect and 100 is complete control
In short: (§2)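 Seedlings are raised to two leaves, flooded to a depth of 3 cm and dosed by adding the compound to the floodwater. Water level is kept constant, and plants are scored visually versus controls 13–15 days later (0 = no effect, 100 = complete control).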

Heteranthera limosa = test: Test B flooded paddy test; format: in vivo; details: Flood, 250 g ai/ha; 0 to 100 scale where 0 is no effect and 100 is complete control
In short: as §2

large (Lg) crabgrass [3] = test: Test A postemergence; format: in vivo, Digitaria sanguinalis; details: for Crabgrass, Large plant response rating: 125 g ai/ha
In short: as §1

large (Lg) crabgrass [4] = test: Test A preemergence; format: in vivo, Digitaria sanguinalis; details: for Crabgrass, Large plant response rating (0 to 100 scale): 125 g ai/ha
In short: as §1

pigweed [5] = test: Test A postemergence; format: in vivo, Amaranthus retroflexus; details: for Pigweed plant response rating: 125 g ai/ha
In short: as §1

giant foxtail [6] = test: Test A preemergence; format: in vivo, Setaria faberii; details: for Foxtail, Giant plant response rating (0 to 100 scale): 125 g ai/ha
In short: as §1

barnyardgrass [7] = test: Test A preemergence; format: in vivo, Echinochloa crus-galli; details: for Barnyardgrass plant response rating (0 to 100 scale, 0 is no effect, 100 is complete control): 125 g ai/ha
In short: as §1

corn [8] = test: Test A preemergence; format: in vivo, Zea mays; details: for Corn plant response rating (0 to 100 scale): 125 g ai/ha
In short: as §1

velvetleaf [9] = test: Test A postemergence; format: in vivo, Abutilon theophrasti; details: for Velvetleaf plant response rating: 125 g ai/ha
In short: as §1

giant foxtail [10] = test: Test A postemergence; format: in vivo, Setaria faberii; details: for Foxtail, Giant plant response rating: 125 g ai/ha
In short: as §1

barnyardgrass [11] = test: Test A postemergence; format: in vivo, Echinochloa crus-galli; details: for Barnyardgrass plant response rating: 125 g ai/ha
In short: as §1

barnyardgrass [12] = test: Test B flooded paddy test; format: in vivo, Echinochloa crus-galli; details: Flood, 250 g ai/ha; 0 to 100 scale where 0 is no effect and 100 is complete control
In short: as §2

wheat [13] = test: Test A preemergence; format: in vivo, Triticum aestivum; details: for Wheat plant response rating (0 to 100 scale): 125 g ai/ha
In short: as §1

pigweed [14] = test: Test A preemergence; format: in vivo, Amaranthus retroflexus; details: for Pigweed plant response rating (0 to 100 scale): 125 g ai/ha
In short: as §1

velvetleaf [15] = test: Test A preemergence; format: in vivo, Abutilon theophrasti; details: for Velvetleaf plant response rating (0 to 100 scale): 125 g ai/ha
In short: as §1

morningglory [16] = test: Test A postemergence; format: in vivo, Ipomoea spp.; details: for Morningglory plant response rating: 125 g ai/ha
In short: as §1

wheat [17] = test: Test A postemergence; format: in vivo, Triticum aestivum; details: for Wheat plant response rating: 125 g ai/ha
In short: as §1

sedge, umbrella = test: Test B flooded paddy test; format: in vivo, Cyperus difformis; details: Flood, 250 g ai/ha; 0 to 100 scale where 0 is no effect and 100 is complete control
In short: as §2

[18] = 500 g ai/ha, 0 to 100 scale where 0 is no effect and 100 is complete control
[19] = 0 to 100 scale where 0 is no effect and 100 is complete control
[20] = 1000 g ai/ha, 0 to 100 scale, 0 no effect, 100 complete control, approx. 10 days
[21] = 1000 g ai/ha, 0 to 100 scale, 0 no effect, 100 complete control

Structure (SMILES)	Morningglory plant response rating (0 to 100 scale) (morningglory [1])	Morningglory plant response rating (morningglory [1]; [18])	Corn plant response rating (corn [2]; [19])	Plant response rating, Corn (corn [2]; [18])	Plant response rating, Rice (rice)	Plant response rating, Ducksalad (Heteranthera limosa)	Crabgrass, Large plant response rating (large (Lg) crabgrass [3]; [19])	Plant response rating, Crabgrass, Large (large (Lg) crabgrass [3]; [18])	Crabgrass, Large plant response rating (0 to 100 scale) (large (Lg) crabgrass [4])	Crabgrass, Large plant response rating (large (Lg) crabgrass [4]; [18])	Pigweed plant response rating (pigweed [5]; [19])	Plant response rating, Pigweed (pigweed [5]; [18])	Foxtail, Giant plant response rating (0 to 100 scale) (giant foxtail [6])	Foxtail, Giant plant response rating (giant foxtail [6]; [18])	Barnyardgrass plant response rating (0 to 100 scale, 0 is no effect, 100 is complete control) (barnyardgrass [7])	Barnyardgrass plant response rating (barnyardgrass [7]; [18])	Corn plant response rating (0 to 100 scale) (corn [8])	Corn plant response rating (corn [8]; [18])	Plant response rating, Barnyardgrass (barnyardgrass [12])	Plant response rating, Sedge, Umbrella (sedge, umbrella)	further results
COc1cnc(Oc2ccccc2-n2cccn2)nc1 [Compound 227]	0	0	0	0	0	0	0	10	0	10	10	60	0	10	0	0	0	0	0	0	Velvetleaf plant response rating (velvetleaf [9]; [19]): 50; Plant response rating, Velvetleaf (velvetleaf [9]; [18]): 90; Foxtail, Giant plant response rating (giant foxtail [10]; [19]): 0; Plant response rating, Foxtail, Giant (giant foxtail [10]; [18]): 10; Barnyardgrass plant response rating (barnyardgrass [11]; [19]): 0; Plant response rating, Barnyardgrass (barnyardgrass [11]; [18]): 0; Wheat plant response rating (0 to 100 scale) (wheat [13]): 0; Wheat plant response rating (wheat [13]; [18]): 0; Pigweed plant response rating (0 to 100 scale) (pigweed [14]): 10; Pigweed plant response rating (pigweed [14]; [18]): 60; Velvetleaf plant response rating (0 to 100 scale) (velvetleaf [15]): 10; Velvetleaf plant response rating (velvetleaf [15]; [18]): 20; Morningglory plant response rating (morningglory [16]; [19]): 0; Plant response rating, Morningglory (morningglory [16]; [18]): 10; Wheat plant response rating (wheat [17]; [19]): 0; Plant response rating, Wheat (wheat [17]; [18]): 0
O=Cc1cccc(Oc2ncc(Br)cn2)c1-n1cc(Br)cn1 [Compound 230]	0	0	0	0	35	20	0	10	0	0	30	60	0	0	0	0	0	0	20	50	Velvetleaf plant response rating (velvetleaf [9]; [19]): 0; Plant response rating, Velvetleaf (velvetleaf [9]; [18]): 30; Foxtail, Giant plant response rating (giant foxtail [10]; [19]): 0; Plant response rating, Foxtail, Giant (giant foxtail [10]; [18]): 20; Barnyardgrass plant response rating (barnyardgrass [11]; [19]): 0; Plant response rating, Barnyardgrass (barnyardgrass [11]; [18]): 20; Wheat plant response rating (0 to 100 scale) (wheat [13]): 0; Wheat plant response rating (wheat [13]; [18]): 0; Pigweed plant response rating (0 to 100 scale) (pigweed [14]): 0; Pigweed plant response rating (pigweed [14]; [18]): 70; Velvetleaf plant response rating (0 to 100 scale) (velvetleaf [15]): 0; Velvetleaf plant response rating (velvetleaf [15]; [18]): 0; Morningglory plant response rating (morningglory [16]; [19]): 0; Plant response rating, Morningglory (morningglory [16]; [18]): 0; Wheat plant response rating (wheat [17]; [19]): 0; Plant response rating, Wheat (wheat [17]; [18]): 0
N#Cc1cnc(Oc2ccccc2-n2cc(Br)cn2)nc1 [Compound 233]	0	0	0	0	20	50	0	10	0	10	20	50	0	0	0	0	0	0	10	50	Velvetleaf plant response rating (velvetleaf [9]; [19]): 0; Plant response rating, Velvetleaf (velvetleaf [9]; [18]): 30; Foxtail, Giant plant response rating (giant foxtail [10]; [19]): 0; Plant response rating, Foxtail, Giant (giant foxtail [10]; [18]): 20; Barnyardgrass plant response rating (barnyardgrass [11]; [19]): 0; Plant response rating, Barnyardgrass (barnyardgrass [11]; [18]): 20; Wheat plant response rating (0 to 100 scale) (wheat [13]): 0; Wheat plant response rating (wheat [13]; [18]): 0; Pigweed plant response rating (0 to 100 scale) (pigweed [14]): 0; Pigweed plant response rating (pigweed [14]; [18]): 20; Velvetleaf plant response rating (0 to 100 scale) (velvetleaf [15]): 0; Velvetleaf plant response rating (velvetleaf [15]; [18]): 0; Morningglory plant response rating (morningglory [16]; [19]): 0; Plant response rating, Morningglory (morningglory [16]; [18]): 0; Wheat plant response rating (wheat [17]; [19]): 0; Plant response rating, Wheat (wheat [17]; [18]): 0
N#Cc1cc(F)cc(Oc2ncc(Cl)cn2)c1-n1cc(Br)cn1 [Compound 238]	10	100	0	80	0	70	60	90	100	100	100	100	100	100	70	100	0	90	0	90	Velvetleaf plant response rating (velvetleaf [9]; [19]): 60; Plant response rating, Velvetleaf (velvetleaf [9]; [18]): 100; Foxtail, Giant plant response rating (giant foxtail [10]; [19]): 60; Plant response rating, Foxtail, Giant (giant foxtail [10]; [18]): 90; Barnyardgrass plant response rating (barnyardgrass [11]; [19]): 40; Plant response rating, Barnyardgrass (barnyardgrass [11]; [18]): 100; Wheat plant response rating (0 to 100 scale) (wheat [13]): 0; Wheat plant response rating (wheat [13]; [18]): 30; Pigweed plant response rating (0 to 100 scale) (pigweed [14]): 100; Pigweed plant response rating (pigweed [14]; [18]): 100; Velvetleaf plant response rating (0 to 100 scale) (velvetleaf [15]): 70; Velvetleaf plant response rating (velvetleaf [15]; [18]): 90; Morningglory plant response rating (morningglory [16]; [19]): 40; Plant response rating, Morningglory (morningglory [16]; [18]): 60; Wheat plant response rating (wheat [17]; [19]): 0; Plant response rating, Wheat (wheat [17]; [18]): 60
CC(=O)c1cn(-c2c(Br)cccc2Oc2ncc(Cl)cn2)nn1 [Compound 280]	–	–	–	–	10	30	–	–	–	–	–	–	–	–	–	–	–	–	10	10	Morningglory plant response rating (morningglory [1]; [20]): 0; Plant response rating, Corn (corn [2]; [21]): 50; Plant response rating, Crabgrass, Large (large (Lg) crabgrass [3]; [21]): 90; Crabgrass, Large plant response rating (large (Lg) crabgrass [4]; [20]): 100; Plant response rating, Pigweed (pigweed [5]; [21]): 100; Foxtail, Giant plant response rating (giant foxtail [6]; [20]): 100; Barnyardgrass plant response rating (barnyardgrass [7]; [20]): 100; Corn plant response rating (corn [8]; [20]): 50; Plant response rating, Velvetleaf (velvetleaf [9]; [21]): 90; Plant response rating, Foxtail, Giant (giant foxtail [10]; [21]): 90; Plant response rating, Barnyardgrass (barnyardgrass [11]; [21]): 90; Wheat plant response rating (wheat [13]; [20]): 40; Pigweed plant response rating (pigweed [14]; [20]): 100; Velvetleaf plant response rating (velvetleaf [15]; [20]): 100; Plant response rating, Morningglory (morningglory [16]; [21]): 30; Plant response rating, Wheat (wheat [17]; [21]): 40

Reference: patent publication US9695155B2, “Herbicidal substituted pyrimidinyloxy benzene compounds” (E. I. DU PONT DE NEMOURS AND COMPANY, priority 2013, dated 2017)
